Measured values taken from patent US20070209950A1, “METHODS AND DEVICES FOR THE DETECTION AND MEASUREMENT OF FREE METALS IN FLUIDS AND METHODS FOR DIAGNOSING METAL-RELATED DISEASES AND FOR DETERMINING PHARMACOLOGIC DOSING REGIMENS” (priority 2006, published 2007).

How the values were obtained:
ceruloplasmin = target: T1, ceruloplasmin (Homo sapiens, UniProt P00450); conditions: order of magnitude; read-out: Kd for copper bound to ceruloplasmin; cited from earlier work
T1 sequence (P00450 20-1065): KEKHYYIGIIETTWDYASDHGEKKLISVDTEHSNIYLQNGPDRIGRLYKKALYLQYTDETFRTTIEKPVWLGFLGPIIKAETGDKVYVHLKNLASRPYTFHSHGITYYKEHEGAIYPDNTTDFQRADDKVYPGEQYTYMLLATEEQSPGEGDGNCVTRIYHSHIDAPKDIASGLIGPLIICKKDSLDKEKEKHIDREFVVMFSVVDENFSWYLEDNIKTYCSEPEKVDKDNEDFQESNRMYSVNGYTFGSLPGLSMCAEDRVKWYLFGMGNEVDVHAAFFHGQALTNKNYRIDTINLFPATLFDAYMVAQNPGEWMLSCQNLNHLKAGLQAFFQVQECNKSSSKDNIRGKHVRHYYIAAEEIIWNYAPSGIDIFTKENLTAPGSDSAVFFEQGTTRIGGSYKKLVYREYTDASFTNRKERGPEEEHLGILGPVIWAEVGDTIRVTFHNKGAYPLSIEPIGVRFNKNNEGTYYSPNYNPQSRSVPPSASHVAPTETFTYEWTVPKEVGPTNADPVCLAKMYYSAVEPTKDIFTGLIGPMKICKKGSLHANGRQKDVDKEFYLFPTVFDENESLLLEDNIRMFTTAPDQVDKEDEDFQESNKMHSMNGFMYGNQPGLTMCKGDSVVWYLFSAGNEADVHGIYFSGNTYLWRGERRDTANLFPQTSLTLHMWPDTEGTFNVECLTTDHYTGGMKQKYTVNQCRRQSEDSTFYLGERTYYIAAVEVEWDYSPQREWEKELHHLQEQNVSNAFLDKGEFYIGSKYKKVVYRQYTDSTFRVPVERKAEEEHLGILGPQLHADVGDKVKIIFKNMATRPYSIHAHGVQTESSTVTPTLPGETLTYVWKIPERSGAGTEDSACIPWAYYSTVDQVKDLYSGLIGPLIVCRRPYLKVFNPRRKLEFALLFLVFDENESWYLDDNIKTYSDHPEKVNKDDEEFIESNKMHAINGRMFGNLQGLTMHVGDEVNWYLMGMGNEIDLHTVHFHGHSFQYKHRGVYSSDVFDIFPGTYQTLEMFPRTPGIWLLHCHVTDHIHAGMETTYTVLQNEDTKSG

[1] = target: apo-glucose dehydrogenase (Acinetobacter calcoaceticus, UniProt P13650); test: activation of apo-glucose dehydrogenase by co-factor PQQ, electrochemical current; assay type: biochemical
Chain of apo-glucose dehydrogenase (P13650 25-478): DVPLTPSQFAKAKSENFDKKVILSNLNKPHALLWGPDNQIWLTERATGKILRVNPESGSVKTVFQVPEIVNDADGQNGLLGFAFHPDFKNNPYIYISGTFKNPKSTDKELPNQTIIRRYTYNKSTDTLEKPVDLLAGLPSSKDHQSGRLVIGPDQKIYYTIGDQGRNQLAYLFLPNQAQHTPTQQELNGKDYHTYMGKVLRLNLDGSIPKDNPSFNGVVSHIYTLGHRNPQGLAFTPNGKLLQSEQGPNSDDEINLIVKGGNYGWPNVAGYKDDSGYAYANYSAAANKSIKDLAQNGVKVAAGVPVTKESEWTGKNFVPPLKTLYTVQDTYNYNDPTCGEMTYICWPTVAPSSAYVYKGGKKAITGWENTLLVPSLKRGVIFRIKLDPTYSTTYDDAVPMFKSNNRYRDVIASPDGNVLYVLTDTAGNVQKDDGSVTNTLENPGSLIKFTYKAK
Description: FIG. 8 is a schematic showing a specific example of glucose being oxidized to gluconone by the holo-enzyme glucose dehydrogenase. In this case the co-enzyme is PQQ and a common mediator used to transducer electrical current through a working electrode is ferrocene. This is another type of configuration in glucometers today.
FIG. 9 is a schematic showing the loss of glucose dehydrogenase activity when the specific co-factor PQQ is removed. As an apo-enzyme, […] is not capable of oxidizing glucose. As a result, transduction of current is blocked.
PQQ was added to apo-enzyme in doses ranging from 100 pM to 100 nM. […] In this case, distinctions were observed by 60 sec.

Row | SMILES | Kd (ceruloplasmin) [nM] | outward current on addition of co-factor ([1]; FIG. 10, with PQQ) | outward current on addition of co-factor ([1]; FIG. 17, PQQ added to apo-enzyme in doses from 100 pM to 100 nM)
1 | [Cu] [copper] | ~0.01 |  | 
2 | O=C(O)c1cc(C(=O)O)c2c(n1)C(=O)C(=O)c1cc(C(=O)O)[nH]c1-2 [PQQ] |  | outward current (more negative) results | increase in the measurement of outward current
